Source: US12612358B2, “Resorcinol-based compounds and uses thereof” (priority 2020, dated 2026)

Columns and labels:
mouse 4T1 TNBC = assay: Cell proliferation, 4T1 TNBC cells; assay type: cell-based; conditions: mouse 4T1 TNBC cells; read-out: IC50 group for inhibition of cell proliferation
PANC-1 = assay: CellTiter-Glo cell proliferation, PANC-1 pancreatic cancer cells; assay type: cell-based, human
Description: (§1) Cell culture and treatment of pancreatic cancer cell lines: Pancreatic cancer cells lines BxPC-3, SW1990, and PANC-1 used in the experiments presented herein can be obtained from ATCC. The cells can be cultured and passaged in complete growth medium (RPMI-1640, Dulbecco's Modified Eagle Medium, or Leibovitz's L-15 medium) that has been supplemented with fetal bovine serum to a final concentration of 10%.
Effects of Compound-5B on proliferation and Id-1 expression in pancreatic cell lines. Compound-5B was next tested for inhibition of cell viability/proliferation in the three pancreatic cancer cell lines and two primary patient-derived cancer cell lines. Compound-5B inhibited cell viability/proliferation of all the cancer cell lines (Table 2). The culturing condition for the pancreatic cell lines was similar to those used in the breast cancer lines, with the exception of the primary patient-derived pancreatic cancer cell lines (PANC9 and PANC13). For determining inhibition of cell proliferation in patient-derived pancreatic cancer cells were cultured in a T75 ultra low attachment flasks with DMEM/F12 media supplemented with B27, penicillin/streptomycin (10,000 u/mL), 50 µg/mL human epidermal growth factor (hEGF), 50 μg/mL human fibroblast growth factor, and 5 μg/mL heparin. Cells were plated in a 384-well plate and incubated for three days to promote the formation of tumorspheres. Cells were then treated with Compound-5B for three days. Cell proliferation of pancreatic cells in the presence of drug was measured using the CellTiter-Glo luminescent Assay and IC50 values were calculated (Table 2). The IC50 and corresponding 95% confidence limits (CL) were calculated using non-linear regression analysis.

SW1990 = assay: CellTiter-Glo cell proliferation, SW1990 pancreatic cancer cells; assay type: cell-based; conditions: Homo sapiens, read-out: IC50 category
Description: as §1
Effects of Compound-5B on proliferation and Id-1 expression in pancreatic cell lines. Compound-5B was next tested for inhibition of cell viability/proliferation in the three pancreatic cancer cell lines and two primary patient-derived cancer cell lines. Compound-5B inhibited cell viability/proliferation of all the cancer cell lines (Table 2). The culturing condition for the pancreatic cell lines was similar to those used in the breast cancer lines, with the exception of the primary patient-derived pancreatic cancer cell lines (PANC9 and PANC13). […] Cell proliferation of pancreatic cells in the presence of drug was measured using the CellTiter-Glo luminescent Assay and IC50 values were calculated (Table 2). […]

U251 (glioblastoma) = assay: Cell proliferation, U251 glioblastoma cells; assay type: cell-based; conditions: Homo sapiens, U-251, read-out: IC50 category
Description: Effects of Compound-5B on cell proliferation in additional cancer cells: To determine whether Compound-5B would have broad based anticancer activity, we study whether Compound-5B would be effective at inhibiting cell proliferation in a variety of cancers overexpressing Id-1. The assay conditions used were identical to those presented for breast and pancreatic cancers. Indeed, Compound-5B was potent at inhibiting cell proliferation in blood cancer (leukemia), glioblastoma, prostate, and ovarian cancer.

[1] = test system: MDA-MB231 breast cancer cells; assay: Combination with paclitaxel, viability of MDA-MB231 cells (combination index); assay type: cell-based, human; conditions: combination with paclitaxel at optimal combined ratios
Description: Concentration-response curves were generated for Compound-5B and paclitaxel alone and in combination (FIG. 2C). The inhibitory values from the concentration response curves were used to calculate combination index (CI) values at multiple combination ratios (FIG. 3A). Methods: Multiple viability assays in a 384 well format were run for each compound and the average percent inhibition of cell viability was calculated and transformed to fraction affected (Fa) e.g., percent inhibitory effect. CI values were calculated using Compusyn software (FIG. 3B). After determining the (IC50/Fa 0.5) values of the drugs individually (C), components were then combined at specific concentration ranges (FIG. 3B) and a combination index was calculated where CI<1, =1, and >1 indicate synergism, additive effect, and antagonism, respectively.

4T1 cells = assay: 4T1 lung metastasis model in BALB/c mice; assay type: in vivo, mouse; conditions: 4T1 tail vein, i.p. once a day, six days a week, three weeks
Description: (§2) Antitumor activity of Compound-5B in vivo in breast cancer. Based on the activity of Compound-5B in culture, the antitumor activity of Compound-5B was tested in vivo in two models of breast cancer (FIG. 4). Compound-5B produced a potent inhibition of Id-1 expression in human MDA-MB231 cells (FIG. 1A). We also determined whether it produced a similar effect in mouse 4T1 breast cancer cells. This cell line is commonly used for seeding a lung metastatic model in mice. […] LC=loading control (FIG. 4A). […] Lung metastases were generated in BALB/c mice by tail vein injection of 4×10^4 4T1 cells. Two days after the injection, the tumor bearing mice were injected i.p. once a day, six days a week, with vehicle or Compound 5B three weeks. Lung metastasis % (total metastatic foci in treated/vehicle×100) was evaluated (FIG. 4B). […] Animals with established tumors (average volume of 100 mm^3) were randomized and treated once daily, 6 days a week, with i.p., injections of vehicle, or 1 mg/kg Compound-5B, tumors were measured once weekly by an operator blinded to the treatment groups. Changes in tumor volume (mm^3) were calculated as (length×width2)/2. *indicates statistically significant differences between vehicle and Compound-5B (p<0.05, Two-way ANOVA repeated measures, and Tukey's multiple comparisons test).

MDA-MB231 cells = assay: MDA-MB231 mammary fat pad primary tumor model in athymic nu/nu mice; assay type: in vivo, mouse; conditions: MDA-MB231, 1 mg/kg i.p. once daily, 6 days a week
Description: as §2

[2] = Aqueous solubility (Eurofins ADME); assay type: physicochemical
Description: (§3) Evaluating ADME of Compound-5B in vitro. It is important to evaluate ADME first in culture as it allows for the selection of the best candidate for PK analysis in vivo. ADME analysis of Compound-5B was performed by Eurofins.

[3] = Plasma protein binding (Eurofins ADME); assay type: in vitro ADME
Description: as §3

hERG = biological target: T1, hERG (Homo sapiens, UniProt Q12809); assay: hERG channel inhibition; assay type: biochemical
T1 construct: purchased Eurofins
Description: as §3

CYP450 isoforms = assay: CYP450 isoform inhibition; assay type: in vitro ADME; conditions: 1 μM
Description: as §3

CYP2C8 = biological target: T2, CYP2C8 (Homo sapiens, UniProt P10632); assay: CYP2C8 inhibition; assay type: in vitro ADME; conditions: 10 μM
T2 construct: purchased Eurofins
Description: as §3

[4] = biological target: T3, ADRB1 (β-Adrenergic receptor) (Homo sapiens, UniProt P08588); assay: SAFETY scan E/IC50 ELECT, ADRB1; assay type: biochemical; conditions: read-out: inhibition against ADRB1 (mild)
T3 construct: purchased Eurofin's

[5] = biological target: T4, DRD1 (Dopamine receptor D1) (Homo sapiens, UniProt P21728); assay: SAFETY scan E/IC50 ELECT, DRD1; assay type: biochemical; conditions: read-out: inhibition against DRD1 (mild)
T4 construct: purchased Eurofin's

468 kinases = assay: Eurofin's Kinome scan assay; conditions: 1 μM and 10 μM
Description: Eurofin's Kinome scan assay was used to screen Compound-5B against 468 kinases at 1 μM and 10 μM concentrations. […] In order to understand any potential pharmacological cross reactivity, a known contributor to clinical adverse drug reactions Compound-5B was tested in SAFETY scan E/IC50 ELECT.

T1 sequence (Q12809 whole entry): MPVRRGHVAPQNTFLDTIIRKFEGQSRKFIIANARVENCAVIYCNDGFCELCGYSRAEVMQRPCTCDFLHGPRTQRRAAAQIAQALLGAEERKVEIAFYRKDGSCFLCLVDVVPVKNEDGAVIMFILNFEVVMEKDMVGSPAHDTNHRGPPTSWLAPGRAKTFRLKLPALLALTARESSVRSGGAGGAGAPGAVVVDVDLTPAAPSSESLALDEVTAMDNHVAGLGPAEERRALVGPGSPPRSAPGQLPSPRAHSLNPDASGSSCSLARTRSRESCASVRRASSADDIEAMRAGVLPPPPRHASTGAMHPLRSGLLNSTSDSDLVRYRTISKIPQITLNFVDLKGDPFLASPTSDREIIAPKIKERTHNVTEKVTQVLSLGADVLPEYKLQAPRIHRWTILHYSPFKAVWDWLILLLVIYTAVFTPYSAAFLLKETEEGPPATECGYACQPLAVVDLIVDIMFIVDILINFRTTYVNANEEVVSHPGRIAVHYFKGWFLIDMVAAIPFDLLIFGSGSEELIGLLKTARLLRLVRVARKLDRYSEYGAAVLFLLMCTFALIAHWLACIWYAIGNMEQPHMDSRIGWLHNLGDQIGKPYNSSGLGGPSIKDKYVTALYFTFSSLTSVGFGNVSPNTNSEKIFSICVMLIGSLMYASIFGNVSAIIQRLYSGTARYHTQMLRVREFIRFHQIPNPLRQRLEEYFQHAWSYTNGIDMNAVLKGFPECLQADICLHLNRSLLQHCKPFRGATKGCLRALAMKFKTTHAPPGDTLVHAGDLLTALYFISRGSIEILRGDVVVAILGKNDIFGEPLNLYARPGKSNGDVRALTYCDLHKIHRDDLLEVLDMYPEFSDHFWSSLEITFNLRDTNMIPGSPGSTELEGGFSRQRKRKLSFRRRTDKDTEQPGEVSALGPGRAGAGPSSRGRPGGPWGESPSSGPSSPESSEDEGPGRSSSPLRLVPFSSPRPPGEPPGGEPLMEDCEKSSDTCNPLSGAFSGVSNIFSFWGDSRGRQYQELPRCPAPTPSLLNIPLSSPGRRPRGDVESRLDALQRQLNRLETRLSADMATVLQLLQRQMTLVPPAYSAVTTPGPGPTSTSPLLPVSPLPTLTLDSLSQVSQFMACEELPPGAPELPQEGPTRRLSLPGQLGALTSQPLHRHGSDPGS
T3 sequence (P08588 whole entry): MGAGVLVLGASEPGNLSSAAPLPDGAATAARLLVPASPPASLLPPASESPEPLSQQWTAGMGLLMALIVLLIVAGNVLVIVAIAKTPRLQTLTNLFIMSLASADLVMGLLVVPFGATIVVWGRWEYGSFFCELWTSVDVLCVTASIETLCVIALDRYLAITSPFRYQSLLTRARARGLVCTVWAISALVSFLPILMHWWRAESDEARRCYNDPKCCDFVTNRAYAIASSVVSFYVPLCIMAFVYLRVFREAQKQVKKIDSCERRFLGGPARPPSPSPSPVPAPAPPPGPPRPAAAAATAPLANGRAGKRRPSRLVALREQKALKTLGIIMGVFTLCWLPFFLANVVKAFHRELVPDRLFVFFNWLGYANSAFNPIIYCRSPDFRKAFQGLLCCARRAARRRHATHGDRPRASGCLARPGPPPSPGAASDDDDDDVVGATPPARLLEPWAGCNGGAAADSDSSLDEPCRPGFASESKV
T2 sequence (P10632 whole entry): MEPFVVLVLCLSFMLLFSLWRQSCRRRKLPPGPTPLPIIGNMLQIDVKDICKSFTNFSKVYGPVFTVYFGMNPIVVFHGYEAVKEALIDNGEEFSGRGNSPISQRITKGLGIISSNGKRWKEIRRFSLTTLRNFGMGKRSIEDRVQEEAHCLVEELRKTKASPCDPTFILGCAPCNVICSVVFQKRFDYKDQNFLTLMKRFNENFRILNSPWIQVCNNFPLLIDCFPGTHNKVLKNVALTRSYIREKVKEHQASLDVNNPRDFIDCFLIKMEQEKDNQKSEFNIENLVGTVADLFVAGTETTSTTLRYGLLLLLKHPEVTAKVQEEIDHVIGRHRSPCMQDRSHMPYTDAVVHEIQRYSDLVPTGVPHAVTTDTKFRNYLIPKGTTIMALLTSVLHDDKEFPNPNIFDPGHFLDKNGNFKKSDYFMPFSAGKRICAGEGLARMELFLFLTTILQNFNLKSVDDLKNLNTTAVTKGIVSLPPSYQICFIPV
T4 sequence (P21728 whole entry): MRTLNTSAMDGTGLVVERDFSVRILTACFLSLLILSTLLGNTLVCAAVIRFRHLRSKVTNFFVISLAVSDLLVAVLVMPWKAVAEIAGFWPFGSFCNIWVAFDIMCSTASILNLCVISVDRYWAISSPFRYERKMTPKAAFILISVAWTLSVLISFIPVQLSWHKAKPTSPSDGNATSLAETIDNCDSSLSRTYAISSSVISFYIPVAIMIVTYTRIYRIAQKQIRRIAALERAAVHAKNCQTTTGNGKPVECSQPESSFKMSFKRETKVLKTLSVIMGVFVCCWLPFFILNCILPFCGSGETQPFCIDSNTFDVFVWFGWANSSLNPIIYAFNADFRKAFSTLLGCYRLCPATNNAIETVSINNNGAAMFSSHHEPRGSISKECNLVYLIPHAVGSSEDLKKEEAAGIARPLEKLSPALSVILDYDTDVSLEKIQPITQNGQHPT

## CCCCCCC(C)(C)c1cc(O)c(C(=O)Nc2ccccc2)c(O)c1 [Compound 5B, 2,6-dihydroxy-4-(2-methyloctan-2-yl)-N-phenylbenzamide]
Mouse 4T1 TNBC
  IC50: 500 to 1000 nM
PANC-1; Homo sapiens, PANC-1, read-out: IC50 category
  IC50: < 500 nM
PANC-1; PANC-1 (by context)
  improvement in potency (IC50) compared to the parent compound CBD: 38 fold
SW1990
  IC50: < 500 nM
U251 (glioblastoma)
  IC50: < 500 nM
[1]
  effect on paclitaxel inhibition of cell viability: can enhance the ability of paclitaxel to inhibit the viability
4T1 cells
  lung metastasis: inhibits breast cancer metastasis
MDA-MB231 cells
  primary tumor growth: able to inhibit primary tumor growth
[2]
  aqueous solubility: low
[3]
  plasma protein binding: high
hERG
  inhibition of cardiac channel hERG: no inhibition
CYP450 isoforms
  inhibition of important CYP450 isoforms: does not inhibit
CYP2C8
  inhibition of CYP2C8: some inhibition
[4]
  IC50: 640 to 750 nM
[5]
  IC50: 640 to 750 nM
468 kinases
  inhibition of 468 kinases: No significant inhibition
